From patent US8440623B2, “Polymer stabilized neuropeptides” (Nektar Therapeutics, priority 1999, dated 2013)

Assays:
rat brain = assay: In situ rat brain perfusion (brain uptake); conditions: radiolabeled compound
Procedure: The protocol for the rat brain perfusion experiments was approved by the Institutional Animal Care and Use Committee at the University of Arizona. The in situ perfusion, capillary depletion, brain extract and protein binding studies were carried out as previously reported (Williams et al., J. Neurochem., 66 (3), pp 1289-1299, 1996).
The protocol for the rat brain perfusion experiments was approved by the Institutional Animal Care and Use Committee at the University of Arizona. The in situ perfusion studies were carried out as previously reported (Williams et al., J. Neurochem., 66 (3), pp 1289-1299, 1996).

male ICR mice = assay: Analgesia assay (radiant heat tail flick), mice; assay type: in vivo, mouse; conditions: intravenous, FIG. 3
Procedure: Male ICR mice (20-25 g) or male Sprague-Dawley rats (250-300 g) (Harlan Sprague-Dawley Inc., Indianapolis, Ind.) were used for these experiments. Animals were housed four per cage in an animal care facility maintained at 22±0.5° C. with an alternating 12 hr light-dark cycle. Food and water were available ad libitum. Animals were used only once.
All drugs were dissolved in sterile saline and were prepared so that the proper dose would be delivered in 5 μl (i.c.v.), 100 μl (i.v.), 100 μl (s.c.) and 100 μl (i.m.) of the vehicle. All rodents were recorded for baseline latency before injection of the drug. A morphine control was used with the i.c.v. and i.v. injection procedures to compare the analgesic efficacies of test compounds. […]
The rodents were placed into restraint holders and their tails were properly placed under the radiant heat beam. The beam was turned on and the time until the animal flicked their tail from under the beam was recorded at each time point. […]
The raw data (recorded times) was converted to a percentage of the maximum possible effect (% M.P.E.) which was determined as 15 seconds. % M.P.E. was determined by the following equation: % M.P.E.=(Recorded time−Baseline)/(15−Baseline)×100
These percentages then allow the compound to be plotted according to % M.P.E. vs. Time. The curve can then be analyzed to determine the area under the curve (AUC).

[1] = Enzymatic stability in blood plasma; assay type: in vitro ADME
Text: (§1) The major contribution is that PEGylation improved brain and blood enzymatic stability dramatically. […] After PEGylation, those half-lives increased to hours for endomorphin II.

[2] = Enzymatic stability in brain tissue; assay type: in vitro ADME
Text: as §1

Row | Molecule | in situ uptake RBr value (rat brain) | time mark at which 50% M.P.E. is seen (male ICR mice) [min] | half-lives in either brain or blood (in words) [1] | half-life ([1]; blood plasma) [min] | half-life [2] [min]
1 | C[C@@H](NC(=O)[C@@H](N)Cc1ccc(O)cc1)C(=O)NCC(=O)N[C@@H](Cc1ccccc1)C(=O)NNC(=O)[C@H](Cc1ccccc1)NC(=O)CNC(=O)[C@@H](C)NC(=O)[C@@H](N)Cc1ccc(O)cc1 [native biphalin, (H-Tyr-D-Ala-Gly-Phe-NH—)2] | 7.26±0.11 | 90 | – | – | –
2 | Tyr-D-Pen-Gly-Phe-D-Pen [I^125 DPDPE] | 3.54±0.30 | – | – | – | –
3 | H-Tyr-Gly-Gly-Phe-Leu-Arg-Arg-Ile-Arg-Pro-Lys-NH2 (H-YGGFLRRIRPK-NH2) [dynorphin] | – | – | on the order of minutes | – | –
4 | NC(=O)[C@H](Cc1ccccc1)NC(=O)[C@H](Cc1ccccc1)NC(=O)[C@@H]1CCCN1C(=O)[C@@H](N)Cc1ccc(O)cc1 [endomorphin II, H-Tyr-Pro-Phe-Phe-NH2] | – | – | on the order of minutes | 3.2 | 13
